Source: patent US8598182B2, “Insecticidal pyrimidinyl aryl hyrdrazones” (Dow AgroSciences, LLC., priority 2007, dated 2013)

How the values were obtained:
[1] = test system: Corn Earworm (Helicoverpa zea); assay: Insecticidal diet-surface test for corn earworm; format: in vivo; settings: second-instar corn earworm, 50 ug/cm2 on diet surface, 5 days after treatment, dead insects of 8
Procedure: (§1) The compounds identified in Table 1 were prepared using the procedures illustrated in the foregoing examples, and the compounds were tested against beet armyworm and corn earworm as follows:
(§2) Insecticidal Test for Corn Earworm (Helicoverpa zea) and Beet Armyworm (Spodoptera exigua).
(§3) To prepare test solution, the test compound was formulated at 2000 ppm solution as 4 mg/2 mL of 9 acetone:1 tap water. 50 μL of the 2000 ppm (equivalent to 50 ug/cm^2 dose on diet surface area) test solution was pipetted upon the surface of 1 mL of lepidopteran diet (Southland Multi-Species Lepidopteran Diet) contained in each of eight wells per insect species (one well=1 replication). A second-instar corn earworm and beet armyworm was placed upon the treated diet in each well once the solvent had air-dried. Trays containing the treated diet and larvae were covered and then held in a growth chamber at 25° C., 50-55% RH, and 16 hr light:8 hr dark for 5 days. Observation were conducted 5 days after treatment and infestation. The number of dead insects of 8 per species per treatment was then determined and the results are given in Table 1 as percent control at a dose of […].
(§4) Keys to the table: Mass spectral data were obtained using liquid chromatography mass spectroscopy (LC-MS). The masses are detected using electrospray ionization (ESI) and reported as Mol Ion (M+H, M−H); AVG LAPHEG 50 refers to activity against beet army worm (Spodoptera exigua) as defined above; AVG HELIZE 50 refers to activity against corn ear worm (Helicoverpa zea) as described above.

[2] = test system: Beet Armyworm (Spodoptera exigua); assay: Insecticidal diet-surface test for beet armyworm; format: in vivo; settings: second-instar beet armyworm, 50 ug/cm2 on diet surface, 5 days after treatment, dead insects of 8
Procedure: as §1, §2, §3, §4

| Structure (SMILES) | HELIZE 50 (ug/cm2), percent control [1] | LAPHEG 50 (ug/cm2), percent control [2] |
| --- | --- | --- |
| Fc1ccc(Nc2nc(Cl)cc(N/N=C/c3ccc(OC(F)(F)C(F)F)cc3)n2)cc1C(F)(F)F [Compound 76] | 25% | 38% |
| Fc1cc(Nc2ccc(F)c(C(F)(F)F)c2)nc(NN=Cc2ccc(OC(F)(F)F)cc2)n1 [Compound 17] | 100% | 100% |
| FC(F)(F)c1ccc(/C=N/Nc2nc(Cl)cc(Nc3cccc(Br)c3)n2)cc1 [Compound 40] | 100% | 100% |
| FC(F)(F)Oc1ccc(/C=N/Nc2cc(Nc3cc(Cl)cc(C(F)(F)F)c3)nc(Cl)n2)cc1 [Compound 83] | 100% | 100% |
| Fc1cnc(Nc2cccc(C(F)(F)F)c2)nc1NN=Cc1ccc(OC(F)(F)F)cc1 [Compound 79] | 100% | 100% |
| OC(c1cccc(Nc2cc(Cl)nc(N/N=C/c3ccc(OC(F)(F)F)cc3)n2)c1)C(F)(F)F (centres unmarked) [Compound 49] | 50% | 88% |
| Fc1cnc(N/N=C/c2ccc(OC(F)(F)F)cc2)nc1Nc1ccc(OC(F)(F)F)cc1 [Compound 13] | 100% | 0% |
| FC(F)(F)c1ccc(/C=N/Nc2nc(Cl)cc(Nc3ccc(Cl)cc3)n2)cc1 [Compound 46] | 100% | 100% |
| Clc1ccc(/C=N/Nc2nc(Cl)cc(Nc3cccc(Br)c3)n2)cc1 [Compound 36] | 38% | 0% |
| FC(F)(F)Oc1ccc(/C=N/Nc2nc(Cl)cc(Nc3ccc(Cl)cc3)n2)cc1 [Compound 26] | 100% | 100% |
| Fc1ccc(Nc2ncc(F)c(NN=Cc3ccc(OC(F)(F)F)cc3)n2)cc1C(F)(F)F [Compound 78] | 100% | 100% |
| Fc1ccc(Nc2cc(N3CCOCC3)nc(N/N=C/c3ccc(OC(F)(F)F)cc3)n2)cc1C(F)(F)F [Compound 62] | 100% | 100% |
| COc1ccc(/C=N/Nc2nc(Cl)cc(Nc3ccc(Cl)cc3)n2)cc1 [Compound 29] | 0% | 63% |
| OC(c1cccc(Nc2cc(Cl)nc(N/N=C/c3ccc(OC(F)(F)C(F)F)cc3)n2)c1)C(F)(F)F (centres unmarked) [Compound 50] | 0% | 63% |
| Fc1ccc(Nc2cc(N/N=C/c3ccc(OC(F)(F)F)cc3)nc(NCc3ccc(Cl)nc3)n2)cc1C(F)(F)F [Compound 3, N-[2-(6-Chloropyridin-3-ylmethyl)]-N-[4-(4-fluoro-3-trifluoromethylphenyl)]-6-{N′-[1-(4-trifluoromethoxyphenyl)-methylidene]-hydrazino}pyrimidine-2,4-diamine] | 100% | 100% |
| Fc1ccc(Nc2cc(C(F)(F)F)nc(N/N=C/c3cccc(Br)c3)n2)cc1C(F)(F)F [Compound 57] | 100% | 100% |
| OC(c1ccc(Nc2cc(F)nc(NN=Cc3ccc(OC(F)(F)F)cc3)n2)cc1)(C(F)(F)F)C(F)(F)F [Compound 21] | 100% | 100% |
| CC(C)(C)C(=O)OC(c1cccc(Nc2cc(Cl)nc(N/N=C/c3ccc(OC(F)(F)F)cc3)n2)c1)C(F)(F)F (centres unmarked) [Compound 53] | 0% | 38% |
| Fc1cc(Nc2ccc(OC(F)(F)C(F)F)cc2)nc(NN=Cc2ccc(OC(F)(F)F)cc2)n1 [Compound 19] | 13% | 50% |
| Fc1ccc(Nc2ccnc(N/N=C/c3ccc(OC(F)(F)F)cc3)n2)cc1C(F)(F)F [Compound 80] | 100% | 100% |
| Fc1ccc(Nc2ccnc(N/N=C/c3ccc(OC(F)(F)C(F)F)cc3)n2)cc1C(F)(F)F [Compound 4] | 100% | 100% |
| CN(c1ccc(OC(F)(F)F)cc1)c1cc(C(F)(F)F)nc(N/N=C/c2ccc(OC(F)(F)F)cc2)n1 [Compound 2, Methyl-(4-trifluoromethoxyphenyl)-(2-{N′-[1-(4-trifluoromethoxy-phenyl)-methylidene]-hydrazino}-6-trifluoromethylpyrimidin-4-yl)amine] | 50% | 0% |
| FC(F)(F)Oc1ccc(/C=N/Nc2ccnc(Nc3ccc(OC(F)(F)F)cc3)n2)cc1 [Compound 73] | 100% | 100% |

| Structure (SMILES) | HELIZE 50 (ug/cm2), percent control [1] | LAPHEG 50 (ug/cm2), percent control [2] |
| --- | --- | --- |
| Fc1ccc(Nc2cc(NN=Cc3ccc(OC(F)(F)F)cc3)ncn2)cc1C(F)(F)F [Compound 85] | 100% | 100% |
| Fc1cnc(N/N=C/c2ccc(Br)cc2)nc1Nc1ccc(OC(F)(F)F)cc1 [Compound 12] | 100% | 0% |
| Fc1cnc(N/N=C/c2cccc(OC(F)(F)F)c2)nc1Nc1ccc(OC(F)(F)F)cc1 [Compound 15] | 75% | 0% |
| FC(F)(F)Oc1ccc(/C=N/Nc2nc(Nc3ccc(OC(F)(F)F)cc3)cc(C(F)(F)F)n2)cc1 [Compound 60] | 100% | 100% |
| Fc1ccc(Nc2cc(Cl)nc(N/N=C/c3ccc(C(F)(F)F)nc3)n2)cc1C(F)(F)F [Compound 68] | 100% | 100% |
| FC(F)(F)COc1ccc(/C=N/Nc2nc(Cl)cc(Nc3cccc(Cl)c3)n2)cn1 [Compound 71] | 100% | 100% |
| Fc1ccc(Nc2cc(OCC(F)(F)F)nc(N/N=C/c3ccc(OC(F)(F)F)cc3)n2)cc1C(F)(F)F [Compound 63] | 100% | 100% |
| FC(F)C(F)(F)Oc1ccc(Nc2cc(Cl)nc(N/N=C/c3ccc(Cl)cc3)n2)cc1 [Compound 10] | 88% | 63% |
| Fc1ccc(/C=N/Nc2nc(Cl)cc(Nc3ccc(OC(F)(F)C(F)F)cc3)n2)cc1C(F)(F)F [Compound 8] | 100% | 100% |
| Fc1cc(Nc2ccc(OC(F)(F)C(F)F)cc2)nc(NN=Cc2ccc(OC(F)(F)C(F)F)cc2)n1 [Compound 20] | 25% | 50% |
| FC(F)(F)Oc1ccc(/C=N/Nc2nc(Cl)cc(Nc3cccc(Br)c3)n2)cc1 [Compound 37] | 100% | 100% |
| Fc1ccc(Nc2cc(Cl)nc(N/N=C/c3ccc(OC(F)(F)C(F)F)cc3)n2)cc1C(F)(F)F [Compound 59] | 100% | 100% |
| Clc1cc(Nc2cccc(Br)c2)nc(N/N=C/c2ccccc2Cl)n1 [Compound 34] | 13% | 25% |
| Fc1ccc(Nc2nc(Cl)cc(N/N=C/c3ccc(OC(F)(F)F)cc3)n2)cc1C(F)(F)F [Compound 75] | 100% | 100% |
| FC(F)C(F)(F)Oc1ccc(/C=N/Nc2cc(Nc3cc(Cl)cc(C(F)(F)F)c3)nc(Cl)n2)cc1 [Compound 84] | 100% | 100% |
| CN(/N=C/c1ccc(OC(F)(F)F)cc1)c1nc(Nc2ccc(OC(F)(F)F)cc2)cc(C(F)(F)F)n1 [Compound 61] | 88% | 88% |
| Fc1cnc(N/N=C/c2ccc(Cl)cc2)nc1Nc1ccc(OC(F)(F)F)cc1 [Compound 16] | 100% | 100% |
| Fc1ccc(/C=N/Nc2nc(Cl)cc(Nc3cccc(OC(F)(F)C(F)F)c3)n2)cc1C(F)(F)F [Compound 48] | 88% | 25% |
| FC(F)C(F)(F)Oc1ccc(Nc2cc(Cl)nc(N/N=C/c3ccc4c(c3)OC(F)(F)O4)n2)cc1 [Compound 9] | 100% | 100% |
| FC(F)C(F)(F)Oc1cccc(/C=N/Nc2nc(Cl)cc(Nc3ccc(Cl)cc3)n2)c1 [Compound 45] | 63% | 63% |
| Clc1ccc(/C=N/Nc2nc(Cl)cc(Nc3cccc(Cl)c3)n2)cc1 [Compound 32] | 88% | 0% |
| Fc1ccc(Nc2cc(C(F)(F)F)nc(N/N=C/c3ccc(C(F)(F)F)nc3)n2)cc1C(F)(F)F [Compound 72] | 100% | 100% |
| Fc1ccc(Nc2cc(C(F)(F)F)nc(N/N=C/c3ccc(OC(F)(F)F)cc3)n2)cc1C(F)(F)F [Compound 56] | 100% | 100% |
